In article PMC11855230, “Oligoethylene Phosphoramidate‐Based Kinase Inhibitor Prodrugs – Solubility, Enzyme Inhibition, and Hydrolysis” (Chemistry (Weinheim an Der Bergstrasse, Germany), 2025):
Values after ≈ are worked out from the molar mass of the structure shown. Values joined by “and” are separate entries in the source; they are usually repeats but may differ in a detail not shown here. Equal entries are not always repeated. Where two headings read alike, the source gives them in different places. Marks after values point to notes of the source that are not given here.

Key:
[1] = Dynamic light scattering (DLS) of drug‐conjugates in water; type: physicochemical; conditions: for PDI / hydrodynamic diameter: DLS in water, at the concentration given per compound (Figures S2–S5); for hydrodynamic diameter d: DLS in water at critical solution concentration c sol, 25 °C
Procedure: To study, whether self‐assembly into micelles might have an effect on the solubility limit of the prodrugs, we perform dynamic light scattering (DLS) of the drug‐conjugates in water. […] Micelles below 6 nm (Cer‐OEG8 , Cri‐OEG3 , Cri‐OEG8 , Pal‐OEG3 , Rib‐OEG2 , and Rib‐OEG3 ) are potentially affected by renal clearance.
Dynamic Light Scattering (DLS): Possible self‐assemblies are investigated with DLS Nano‐Zetasizer (Malvern Instruments) at 25 °C with a scattering angle of 173° at λ=633 nm.

[2] = target: T1, ROS proto‐oncogene 1 (ROS1) (Homo sapiens, UniProt P08922); assay: ROS1 cell free enzyme (kinase) inhibition assay, luminescence; type: biochemical; conditions: 1 % DMSO, duplicates
T1 construct: purchased biomol
T1 sequence (P08922 28-2347): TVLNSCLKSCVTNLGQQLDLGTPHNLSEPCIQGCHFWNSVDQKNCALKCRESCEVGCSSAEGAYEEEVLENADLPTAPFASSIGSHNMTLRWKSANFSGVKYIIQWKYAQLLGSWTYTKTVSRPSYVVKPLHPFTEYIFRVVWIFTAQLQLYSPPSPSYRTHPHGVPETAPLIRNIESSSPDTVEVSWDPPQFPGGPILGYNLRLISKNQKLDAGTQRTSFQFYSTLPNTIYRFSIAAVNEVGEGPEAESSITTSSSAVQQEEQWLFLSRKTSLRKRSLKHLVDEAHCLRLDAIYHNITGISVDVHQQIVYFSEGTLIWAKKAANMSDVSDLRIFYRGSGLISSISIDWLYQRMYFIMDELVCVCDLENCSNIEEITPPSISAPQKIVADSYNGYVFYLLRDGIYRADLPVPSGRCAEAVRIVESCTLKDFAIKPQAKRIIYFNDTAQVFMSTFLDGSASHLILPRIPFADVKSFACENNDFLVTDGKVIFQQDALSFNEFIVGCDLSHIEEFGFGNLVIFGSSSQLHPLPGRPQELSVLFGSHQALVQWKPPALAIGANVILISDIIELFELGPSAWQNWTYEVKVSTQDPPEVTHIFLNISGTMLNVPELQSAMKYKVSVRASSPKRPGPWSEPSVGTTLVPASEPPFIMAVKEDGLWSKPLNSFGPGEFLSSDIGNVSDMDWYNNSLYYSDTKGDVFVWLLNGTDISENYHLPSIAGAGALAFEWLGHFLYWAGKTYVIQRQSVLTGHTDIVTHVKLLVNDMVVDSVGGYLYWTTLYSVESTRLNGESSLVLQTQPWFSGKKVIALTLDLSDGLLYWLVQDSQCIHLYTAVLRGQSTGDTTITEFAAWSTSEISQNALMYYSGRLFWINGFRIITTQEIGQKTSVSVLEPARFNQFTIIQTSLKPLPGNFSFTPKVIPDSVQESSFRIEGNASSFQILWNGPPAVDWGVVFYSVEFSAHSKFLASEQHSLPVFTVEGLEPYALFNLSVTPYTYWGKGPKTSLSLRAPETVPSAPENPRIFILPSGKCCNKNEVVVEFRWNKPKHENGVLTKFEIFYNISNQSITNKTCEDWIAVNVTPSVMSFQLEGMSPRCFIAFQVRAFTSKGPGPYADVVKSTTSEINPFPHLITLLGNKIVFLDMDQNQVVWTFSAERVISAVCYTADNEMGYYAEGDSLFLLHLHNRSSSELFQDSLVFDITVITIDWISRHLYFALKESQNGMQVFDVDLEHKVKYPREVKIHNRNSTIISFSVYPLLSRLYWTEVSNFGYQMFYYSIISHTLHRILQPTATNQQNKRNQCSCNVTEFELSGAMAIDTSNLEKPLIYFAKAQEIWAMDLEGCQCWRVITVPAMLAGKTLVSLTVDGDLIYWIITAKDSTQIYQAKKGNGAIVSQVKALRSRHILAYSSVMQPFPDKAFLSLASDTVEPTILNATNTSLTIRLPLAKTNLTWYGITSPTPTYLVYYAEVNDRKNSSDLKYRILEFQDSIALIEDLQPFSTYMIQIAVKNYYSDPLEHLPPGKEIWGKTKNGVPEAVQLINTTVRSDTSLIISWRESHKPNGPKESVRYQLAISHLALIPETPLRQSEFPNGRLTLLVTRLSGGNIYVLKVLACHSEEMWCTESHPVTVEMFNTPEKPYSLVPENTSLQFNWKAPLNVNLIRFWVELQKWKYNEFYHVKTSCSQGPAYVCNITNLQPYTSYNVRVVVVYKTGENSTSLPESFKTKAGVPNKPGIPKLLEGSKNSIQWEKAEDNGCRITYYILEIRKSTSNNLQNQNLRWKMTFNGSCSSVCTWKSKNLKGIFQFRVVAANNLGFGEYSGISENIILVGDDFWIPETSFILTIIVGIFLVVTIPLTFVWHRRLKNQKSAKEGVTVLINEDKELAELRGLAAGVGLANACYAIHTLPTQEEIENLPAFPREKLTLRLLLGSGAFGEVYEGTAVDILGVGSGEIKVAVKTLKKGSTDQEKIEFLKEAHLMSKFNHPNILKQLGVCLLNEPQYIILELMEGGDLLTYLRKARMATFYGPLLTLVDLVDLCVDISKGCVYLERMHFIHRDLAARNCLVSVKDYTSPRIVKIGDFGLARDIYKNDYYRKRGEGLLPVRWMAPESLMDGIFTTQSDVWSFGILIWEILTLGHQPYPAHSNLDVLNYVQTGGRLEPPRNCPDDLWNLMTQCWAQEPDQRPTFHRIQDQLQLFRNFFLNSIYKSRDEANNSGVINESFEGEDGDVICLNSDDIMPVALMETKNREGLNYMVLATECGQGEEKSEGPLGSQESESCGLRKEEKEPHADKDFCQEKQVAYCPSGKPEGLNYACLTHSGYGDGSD
Procedure: (§1) Apart from solubility and self‐assembly, we investigate the inhibitory potential against the respectively targeted receptors.
(§2) Enzyme Binding Studies (ROS1):[21] ROS1 assays are performed with the following substances: Cer‐OEG2 , Cer‐OEG3 , Cer‐OEG8 , Cri‐OEG2 , Cri‐OEG3 and Cri‐OEG8 . The instructions are followed with some specifications: DTT (10 μL of 1 M DTT to 1 mL buffer) is added to the buffer solution and the assay is performed with 1 % DMSO in the final reaction volume. Serial dilutions of inhibitor (5 μL) are mixed with 20 μL enzyme (5 ng/μL), 5 μL of IGF‐1Rtide (1 mg/mL) and 1 μL ATP solution (500 μM) in a 96‐well plate. The blank contains no enzyme and no inhibitor. The positive control contains enzyme but no inhibitor. The receptor inhibitory rate is calculated from the luminescence as IC50. […] Luminescence is recorded on Promega GloMax Navigator Microplate Luminometer. Samples are prepared in duplicates.

[3] = target: T2, cyclin‐dependent kinase 4 (CDK4) (Homo sapiens, UniProt P11802); assay: CDK4 cell free enzyme (kinase) inhibition assay, luminescence; type: biochemical; conditions: 1 % DMSO, duplicates
T2 construct: purchased biomol
T2 sequence (P11802 whole entry): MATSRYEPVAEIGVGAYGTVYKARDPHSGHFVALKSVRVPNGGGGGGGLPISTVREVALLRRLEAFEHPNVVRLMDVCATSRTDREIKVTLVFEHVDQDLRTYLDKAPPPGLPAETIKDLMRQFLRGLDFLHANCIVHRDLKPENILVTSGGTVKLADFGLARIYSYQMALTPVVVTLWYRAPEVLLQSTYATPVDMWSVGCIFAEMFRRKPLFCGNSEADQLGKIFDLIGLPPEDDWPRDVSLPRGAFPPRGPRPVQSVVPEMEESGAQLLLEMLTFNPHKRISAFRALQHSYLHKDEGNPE
T2 sequence (P30281 whole entry partner): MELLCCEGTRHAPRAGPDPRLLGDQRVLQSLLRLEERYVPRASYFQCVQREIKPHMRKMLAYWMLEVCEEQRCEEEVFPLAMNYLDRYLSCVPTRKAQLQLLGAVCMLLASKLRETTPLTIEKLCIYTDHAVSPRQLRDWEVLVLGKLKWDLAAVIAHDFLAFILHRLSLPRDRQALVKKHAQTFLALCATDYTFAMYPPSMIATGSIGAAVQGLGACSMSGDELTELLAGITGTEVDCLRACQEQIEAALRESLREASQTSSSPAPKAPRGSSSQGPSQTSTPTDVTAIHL
Procedure: as §1
as §2, with “Binding Assays (CDK4):[21] […]” for “Binding Studies (ROS1):[21] ROS1 assays are performed with the following substances: Cer‐OEG2 , Cer‐OEG3 , Cer‐OEG8 , Cri‐OEG2 , Cri‐OEG3 and Cri‐OEG8 .”, “enzyme (10” for “enzyme (5”, “of 10x CDK4 substrate peptide” for “of IGF‐1Rtide (1 mg/mL)”

[4] = Solubility limit in water (kinetic solubility) by UV/Vis optical density at 600 nm; type: physicochemical; conditions: kinetic from dmso stock, absorption at 600 nm, read-out: c sol (water), solubility limit in water
Text: With all purified compounds in hand, we start to analyze the different properties of the conjugates and discuss the influence of the OEG‐chain lengths. We determine the solubility in water with UV/Vis spectroscopy by measuring the optical density at 600 nm. The absorption (A) is plotted against varying concentration (c) of the drug conjugates (see Figure S1). In the range, in which the drug and their conjugates are still soluble, A can be fitted linearly. When the solubility limit is reached, the drug crashes out of solution leading to scattering and reduced transmission manifesting a threshold, upon which the increase in absorption is fitted with a second line of higher slope. The intersection between the two linear fits gives the critical concentration for the kinetic solubility c sol. Detailed solubility plots can be found in the supporting information (see Figure S1). In our previous study with n=4, the solubility of all three kinase inhibitor prodrugs in water is improved over the native drug. However, the extent of improvement varies between the different kinase inhibitor prodrugs. For a better overview, we have included the performance of our previous study (see Figure 2).[21] […] We observe an improvement of solubility upon conjugation with all of our different OEG‐phosphates.
UV‐Vis Spectroscopy: Changes in solubility are measured with a Lambda 365 spectrometer by PerkinElmer supplied with UV WinLab software. Samples are prepared in water and placed in a 1 cm quartz cuvette.

[5] = design: method as in PMID 38923708; conditions: kinetic solubility, cited from earlier work
HeLa cells [6] = assay: Cellular drug release in HeLa cells, LC–MS of cell lysate; type: cell-based; conditions: 20 μM, 48 h
Procedure: HeLa cells are treated with Rib‐OEG4 for 48 h followed by cell lysis. The cell lysate is analyzed with liquid chromatography‐mass spectrometry (LC–MS). […] This confirms that release of the drug is possible in cells and that the low pH in some of the cell compartments, such as the lysosomes, yield release of the effective drug molecule.
Cellular Drug‐Release with LC–MS: Drug release studies are performed according to previous publication with 20 μM of Rib‐OEG4 .[21]

HeLa cells [7] = assay: Cell uptake in HeLa cells by confocal laser scanning microscopy (CLSM); type: cell-based; conditions: 25 μM, 23 h, excitation 405 nm
Procedure: Altogether an OEG chain length of n=4 seems to be favorable for producing prodrugs with improved solubility from kinase inhibitors. […] Here we therefore concentrate on Rib‐OEG4 . […] The drug and its conjugate are exited at 405 nm, leading to weak fluorescence of the drugs.
Uptake is followed by Confocal for 23 h using Leica TCS SP8 Lightning confocal microscope with an OnkoLab incubator chamber with a constant temperature of 37 °C and a 5 % CO2 atmosphere at 95 % humidity (gas flow: 0.1 L/min). Drug and drug‐OEG conjugate is excited at 405 nm.

[8] = pH dependent hydrolysis / drug release by HPLC; type: physicochemical; conditions: acetate buffer, pH 3, 37 °C
Text: The working principle of a prodrug is to improve solubility and circulation time and not necessarily to improve binding to the target. However, binding should of course become important when the prodrug has arrived at the designated site and the promoiety is cleaved to release the native drug. In case of the phosphoramidate linked OEG chains, release of the native drug is induced by hydrolysis at low pH.[21, 28, 29, 30, 31, 32] The stability of the phosphoramidate linker and therefore its half‐life depends on the chemical surrounding in the molecule.[28, 29] Since we only change distant substituents by varying the binding motif of the respective kinase inhibitor, we expect only minor influence on the rate of hydrolysis. We investigate the samples at pH 3, 4, 5, 6, and 7.4 over a course of 72 h at 37 °C using high pressure liquid chromatography (HPLC) (see Figure S10–13 and Table S1–11). […]
High Performance Liquid Chromatography (HPLC): Drug release is monitored on Agilent 1260 Infinity containing the following modules: G1311B Quat Pump, G1329B ALS, G1365D MWD VL in combination with a Jetstream 2 plus column thermostat. […] Flow rate is set to 0.3 mL/min and absorption is detected at 254 nm. […]
pH Dependent Hydrolysis:[21] […] Drug release percentages are calculated form the ratio of the peak area of drug and drug‐OEG conjugate for 0, 3, 6, 24, 48 and 72 h.

[9] = values marked a from previous publication ref 21

Row | SMILES | PDI [1] | hydrodynamic diameter [1] | IC50 [2] | IC50 [3] | solubility [4] | further results
1 | COCCOCCOP(=O)(OCCOCCOC)N1CCC(c2cc(OC(C)C)c(Nc3ncc(Cl)c(Nc4ccccc4S(=O)(=O)C(C)C)n3)cc2C)CC1 [Cer‐OEG2] | 0.46 | 565 nm | 0.1 µM | – | – | –
2 | COCCOCCOP(=O)(OCCOCCOC)N1CCN(c2ccc(Nc3ncc4cc(C(=O)N(C)C)n(C5CCCC5)c4n3)nc2)CC1 [Rib‐OEG2] | 0.22 | 2.5 nm | – | 0.11 µM | 12.3 mM (≈ 8840 µg/mL) | –
3 | COCCOCCOCCOCCOCCOCCOCCOCCOP(=O)(OCCOCCOCCOCCOCCOCCOCCOCCOC)N1CCC(n2cc(-c3cnc(N)c(O[C@H](C)c4c(Cl)ccc(F)c4Cl)c3)cn2)CC1 [Cri‐OEG8] | 0.36 | 3.3 nm | 0.14 µM | – | ≤ 4.62 mM | –
4 | COCCOCCOCCOP(=O)(OCCOCCOCCOC)N1CCC(c2cc(OC(C)C)c(Nc3ncc(Cl)c(Nc4ccccc4S(=O)(=O)C(C)C)n3)cc2C)CC1 [Cer‐OEG3] | 0.05 | 279 nm | 0.045 µM | – | – | –
5 | COCCOCCOP(=O)(OCCOCCOC)N1CCN(c2ccc(Nc3ncc4c(C)c(C(C)=O)c(=O)n(C5CCCC5)c4n3)nc2)CC1 [Pal‐OEG2] | 0.17 | 264 nm | – | 1 µM | – | –
6 | CC(=O)c1c(C)c2cnc(Nc3ccc(N4CCNCC4)cn3)nc2n(C2CCCC2)c1=O [Palbociclib] | – | – | – | – | – | c sol (water), solubility limit in water [5, 9]: ≤0.02 ^a mM
7 | C[C@@H](Oc1cc(-c2cnn(C3CCNCC3)c2)cnc1N)c1c(Cl)ccc(F)c1Cl [Crizotinib] | – | – | – | – | – | c sol (water), solubility limit in water [5, 9]: ≤0.77 ^a mM
8 | COCCOCCOCCOP(=O)(OCCOCCOCCOC)N1CCN(c2ccc(Nc3ncc4cc(C(=O)N(C)C)n(C5CCCC5)c4n3)nc2)CC1 [Rib‐OEG3] | 0.15 | 1.8 nm | – | 0.37 µM | 13.5 mM (≈ 10900 µg/mL) | –
9 | COCCOCCOCCOP(=O)(OCCOCCOCCOC)N1CCN(c2ccc(Nc3ncc4c(C)c(C(C)=O)c(=O)n(C5CCCC5)c4n3)nc2)CC1 [Pal‐OEG3] | 0.74 | 5 nm | – | 0.215 to 0.27 µM and 0.215 µM | 8.71 mM (≈ 7140 µg/mL) | –
10 | COCCOCCOCCOCCOCCOCCOCCOCCOP(=O)(OCCOCCOCCOCCOCCOCCOCCOCCOC)N1CCN(c2ccc(Nc3ncc4cc(C(=O)N(C)C)n(C5CCCC5)c4n3)nc2)CC1 [Rib‐OEG8] | 0.22 | 64 nm | – | 0.4 µM | 1.52 mM (≈ 1900 µg/mL) | hydrodynamic diameter d [1]: 64 nm
11 | COCCOCCOCCOCCOP(=O)(OCCOCCOCCOCCOC)N1CCN(c2ccc(Nc3ncc4cc(C(=O)N(C)C)n(C5CCCC5)c4n3)nc2)CC1 [Rib‐OEG4] | 0.35 | 92 nm | – | 0.012 µM | 9.33 mM (≈ 8350 µg/mL) | release of native drug from prodrug in HeLa cells (HeLa cells [6]): most of the native drug has been released; hydrodynamic diameter d [1]: 92 nm; uptake in HeLa cells (HeLa cells [7]): taken up by the cells
12 | COCCOCCOCCOCCOCCOCCOCCOCCOP(=O)(OCCOCCOCCOCCOCCOCCOCCOCCOC)N1CCN(c2ccc(Nc3ncc4c(C)c(C(C)=O)c(=O)n(C5CCCC5)c4n3)nc2)CC1 [Pal‐OEG8] | 0.33 | 596 nm | – | 0.215 to 0.27 µM and 0.27 µM | ≤ 3.16 mM | hydrodynamic diameter d [1]: 596 nm
13 | COCCOCCOP(=O)(OCCOCCOC)N1CCC(n2cc(-c3cnc(N)c(O[C@H](C)c4c(Cl)ccc(F)c4Cl)c3)cn2)CC1 [Cri‐OEG2] | 0.03 | 151 nm | 0.05 µM | – | – | –
14 | COCCOCCOCCOCCOCCOCCOCCOCCOP(=O)(OCCOCCOCCOCCOCCOCCOCCOCCOC)N1CCC(c2cc(OC(C)C)c(Nc3ncc(Cl)c(Nc4ccccc4S(=O)(=O)C(C)C)n3)cc2C)CC1 [Cer‐OEG8] | 0.25 | 4.9 nm | 0.1 µM | – | 1.75 mM (≈ 2400 µg/mL) | half-life [8]: 50 h
15 | COCCOCCOCCOP(=O)(OCCOCCOCCOC)N1CCC(n2cc(-c3cnc(N)c(O[C@H](C)c4c(Cl)ccc(F)c4Cl)c3)cn2)CC1 [Cri‐OEG3] | 0.02 | 3.7 nm | 0.045 µM | – | 19.1 mM (≈ 15700 µg/mL) | –
16 | Cc1cc(Nc2ncc(Cl)c(Nc3ccccc3S(=O)(=O)C(C)C)n2)c(OC(C)C)cc1C1CCNCC1 [Ceritinib] | – | – | – | – | – | c sol (water), solubility limit in water ([5]; values marked a from previous publication ref 21, listed as Ceritninib): 0.93 mM; c sol (water), solubility limit in water [5, 9]: ≤0.93^a mM
17 | CN(C)C(=O)c1cc2cnc(Nc3ccc(N4CCNCC4)cn3)nc2n1C1CCCC1 [Ribociclib, reference compound] | – | – | – | – | 0.49 mM (≈ 213 µg/mL) | uptake in HeLa cells (HeLa cells [7]): taken up by the cells
